Values quoted from earlier work, collected in patent US10561609B2, “Antiviral compositions” (The University of Liverpool, priority 2010, dated 2020).
Structures can show the parent of a compound that is named as a salt.

Details: according to M. Fardis and R. Oliyai; same value restated in g/L

For `CC(C)OC(=O)OCOP(=O)(CO[C@H](C)Cn1cnc2c(N)ncnc21)OCOC(=O)OC(C)C` [tenofovir disoproxil fumarate], the water solubility is given as 13.4 g/L.
